The results in this text go back to patent US10336775B2 (Asceneuron SA, priority 2014, dated 2019).

The target of the first assay is His-Tagged hOGA (human O-GlcNAcase) (Homo sapiens (Human), UniProt O60502). Put plainly: Human O-GlcNAcase enzyme inhibition assay (Example B01). It is filed as biochemical. The note with it: OGA IC50 (M), OGA enzyme inhibition assay; activity range classes defined in μM.
Sequence of His-Tagged hOGA (human O-GlcNAcase) (O60502 whole entry): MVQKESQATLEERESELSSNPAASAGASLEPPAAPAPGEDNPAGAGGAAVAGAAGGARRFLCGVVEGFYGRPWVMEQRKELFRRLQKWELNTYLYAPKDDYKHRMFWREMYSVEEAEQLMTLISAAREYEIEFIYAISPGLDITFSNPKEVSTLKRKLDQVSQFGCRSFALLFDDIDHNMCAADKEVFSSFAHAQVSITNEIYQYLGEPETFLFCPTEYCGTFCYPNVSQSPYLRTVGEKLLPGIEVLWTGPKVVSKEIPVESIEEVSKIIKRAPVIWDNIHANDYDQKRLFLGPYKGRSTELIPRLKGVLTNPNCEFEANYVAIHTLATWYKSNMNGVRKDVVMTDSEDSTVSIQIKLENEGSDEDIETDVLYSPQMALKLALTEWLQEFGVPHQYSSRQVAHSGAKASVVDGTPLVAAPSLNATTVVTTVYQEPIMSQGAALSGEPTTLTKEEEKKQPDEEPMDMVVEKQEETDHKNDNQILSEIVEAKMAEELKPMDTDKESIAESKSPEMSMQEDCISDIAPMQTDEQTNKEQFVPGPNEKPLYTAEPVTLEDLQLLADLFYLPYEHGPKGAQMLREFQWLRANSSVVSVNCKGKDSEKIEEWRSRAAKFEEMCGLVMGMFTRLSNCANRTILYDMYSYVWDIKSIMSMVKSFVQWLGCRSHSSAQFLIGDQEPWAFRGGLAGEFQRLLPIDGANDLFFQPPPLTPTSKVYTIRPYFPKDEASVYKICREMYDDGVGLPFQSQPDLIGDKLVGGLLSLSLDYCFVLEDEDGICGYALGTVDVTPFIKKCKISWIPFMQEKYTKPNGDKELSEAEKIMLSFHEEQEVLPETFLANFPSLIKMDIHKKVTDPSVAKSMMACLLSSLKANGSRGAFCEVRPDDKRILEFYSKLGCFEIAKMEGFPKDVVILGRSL
As to `CC(=O)Nc1cnc(N2CCN(C(C)c3ccc4c(c3)OCO4)CC2)nc1` (single isomer, unassigned) [Example 78], the IC50 was < 5e-08 M.

For `CC(c1ccc2cccnc2c1)N1CCN(c2ncccn2)CC1` (single isomer, unassigned) [Example 95, (S)-7-(1-(4-(pyrimidin-2-yl)piperazin-1-yl)ethyl)quinolone or (R)-7-(1-(4-(pyrimidin-2-yl)piperazin-1-yl)ethyl)quinoline], the IC50 fell in the range of 5e-08 to 2e-07 M.

With `CC(c1ccc2nccnc2c1)N1CCN(c2nc3cnccc3s2)CC1` (racemic) [Example 140, 2-(4-(1-(quinoxalin-6-yl)ethyl)piperazin-1-yl)thiazolo[4,5-c]pyridine], the IC50 was in the range of 2e-07 to 1e-06 M.

The same assay, now with this note: OGA enzyme inhibition assay; activity range classes defined in μM; read-out: OGA IC50.
Consider `C[C@@H](c1ccc2c(c1)OCO2)N1CCN(c2ncc(C3(O)CCCCC3)cn2)CC1` [Example 180, (S)-1-(2-(4-(1-(benzo[d][1,3]dioxol-5-yl)ethyl)piperazin-1-yl)pyrimidin-5-yl)cyclohexan-1-ol], for which the IC50 is < 5e-08 M.

As to `CC(=O)Nc1cnc(N2CCN(C(C)c3ccc4c(c3)OC(F)(F)O4)CC2)nc1` (racemic) [Example 118], the IC50 was in the range of 2e-07 to 1e-06 M.

In the case of `CC(c1ccc2nccnc2c1)N1CCN(c2ncc(F)cn2)CC1` (racemic) [Example 172, 6-(1-(4-(5-fluoropyrimidin-2-yl)piperazin-1-yl)ethyl)quinoxaline], the IC50 was 5e-08 to 2e-07 M.

On to `CC(c1ccc2c(c1)OCO2)N1CCN(c2nc(CO)cs2)CC1` (racemic) [Example 29, (2-(4-(1-(Benzo[d][1,3]dioxol-5-yl)ethyl)piperazin-1-yl)thiazol-4-yl)methanol], for which the IC50 fell in the range of 5e-08 to 2e-07 M.

Take `CC(=O)Nc1cnc(N2CCN(C(C)c3ccc4cc(Cl)cnc4c3)CC2)nc1` (racemic) [Example 125, N-(2-(4-(1-(3-chloroquinolin-7-yl)ethyl)piperazin-1-yl)pyrimidin-5-yl)acetamide]: the IC50 was 1e-06 to 1e-05 M.

With `CNC(=O)c1cnc(N2CCN(C(C)c3ccc4c(c3)OCO4)CC2)nc1` (racemic) [Example 98, 2-(4-(1-(Benzo[d][1,3]dioxol-5-yl)ethyl)piperazin-1-yl)-N-methylpyrimidine-5-carboxamide], the IC50 was < 5e-08 M.

`CC(=O)Nc1cnc(N2CCN(C(C)c3ccc4c(c3)OCC4)CC2)nc1` (racemic) [Example 129, N-(2-(4-(1-(2,3-dihydrobenzofuran-6-yl)ethyl)piperazin-1-yl)pyrimidin-5-yl)acetamide]: the concentration for half-maximal inhibition (IC50) was < 5e-08 M.

Consider `CNC(=O)c1ccc(N2CCN([C@@H](C)c3ccc4c(c3)OCO4)CC2)nc1` [Example 186, (S)-6-(4-(1-(benzo[d][1,3]dioxol-5-yl)ethyl)piperazin-1-yl)-N-methylnicotinamide], for which the IC50 is < 5e-08 M.

In the case of `CCNc1nnc(N2CCN([C@@H](C)c3ccc4c(c3)OCO4)CC2)s1` [Example 141, (S)-5-(4-(1-(benzo[d][1,3]dioxol-5-yl)ethyl)piperazin-1-yl)-N-ethyl-1,3,4-thiadiazol-2-amine], the IC50 is 5e-08 to 2e-07 M.

`CC(C)c1csc(N2CCN(C(C)c3ccc4c(c3)OCO4)CC2)n1` (racemic) [Example 12, 2-(4-(1-(Benzo[d][1,3]dioxol-5-yl)ethyl)piperazin-1-yl)-4-isopropylthiazole]: the IC50 lay within 2e-07 to 1e-06 M.

Consider `CCOC(=O)c1cnc(N2CCN(C(C)c3ccc4nccnc4c3)CC2)s1` (racemic) [Example 90, Ethyl-2-(4-(1-(quinoxalin-6-yl)ethyl)piperazin-1-yl)thiazole-5-carboxylate], for which the IC50 was 2e-07 to 1e-06 M.

`CC(=O)N(C)Cc1cnc(N2CCN(C(C)c3ccc4c(c3)OCO4)CC2)s1` (racemic) [Example 80, N-((2-(4-(1-(benzo[d][1,3]dioxol-5-yl)ethyl)piperazin-1-yl)thiazol-5-yl)methyl)-N-methylacetamide]: the IC50 was < 5e-08 M.

As to `CC(c1ccc2c(c1)OCO2)N1CCN(c2cnc(Cl)cn2)CC1` (racemic) [Example 25], the IC50 fell in the range of 5e-08 to 2e-07 M.

On to `CC(c1ccc2c(c1)OCCO2)N1CCN(c2ncc(C(=O)N3CCC(O)CC3)s2)CC1` (racemic) [Example 73, (2-(4-(1-(2,3-Dihydrobenzo[b][1,4]dioxin-6-yl)ethyl)piperazin-1-yl)thiazol-5-yl)(4-hydroxypiperidin-1-yl)methanone], for which the IC50 lay within 5e-08 to 2e-07 M.

In the case of `CC(c1ccc2nccnc2c1)N1CCN(c2ncccn2)CC1` (racemic) [Example 83, 6-(1-(4-(pyrimidin-2-yl)piperazin-1-yl)ethyl)quinoxaline], the IC50 was in the range of 5e-08 to 2e-07 M.

Turning to `CC(=O)Nc1ncc(N2CCN(C(C)c3ccc4c(c3)OCO4)CC2)s1` (racemic) [Example 86, N-(5-(4-(1-(benzo[d][1,3]dioxol-5-yl)ethyl)piperazin-1-yl)thiazol-2-yl)acetamide], the IC50 is < 5e-08 M.

As to `CC(=O)Nc1nnc(N2CCN(C(C)c3ccc4ncsc4c3)CC2)s1` (racemic) [Example 179, N-(5-(4-(1-(benzo[d]thiazol-6-yl)ethyl)piperazin-1-yl)-1,3,4-thiadiazol-2-yl)acetamide], the IC50 lay within 1e-06 to 1e-05 M.

For the compound `CC(=O)Nc1cnc(N2CCN(C(C)c3ccc4c(c3)OCCCO4)CC2)nc1` (racemic) [Example 126, N-(2-(4-(1-(3,4-dihydro-2H-benzo[b][1,4]dioxepin-7-yl)ethyl)piperazin-1-yl)pyrimidin-5-yl)acetamide], the IC50 is 2e-07 to 1e-06 M.

In the case of `CC(C)NC(=O)c1csc(N2CCN(C(C)c3ccc4c(c3)OCO4)CC2)n1` (racemic) [Example 32, 2-(4-(1-(Benzo[d][1,3]dioxol-5-yl)ethyl)piperazin-1-yl)-N-isopropylthiazole-4-carboxamide], the IC50 is 2e-07 to 1e-06 M.

Consider `CC(c1ccc2c(c1)OCO2)N1CCN(c2ccnc(N)n2)CC1` (racemic) [Example 46, 4-(4-(1-(Benzo[d][1,3]dioxol-5-yl)ethyl)piperazin-1-yl)pyrimidin-2-amine], for which the IC50 was in the range of 5e-08 to 2e-07 M.

With `CC(=O)Nc1nnc(N2CCN(C(C)c3ccc4c(c3)OCC4)CC2)s1` (racemic) [Example 128, N-(5-(4-(1-(2,3-dihydrobenzofuran-6-yl)ethyl)piperazin-1-yl)-1,3,4-thiadiazol-2-yl)acetamide], the IC50 was < 5e-08 M.

On to `Cc1noc(C2CCN(C(C)c3ccc4c(c3)OCO4)CC2)n1` (racemic) [Example 4, 5-(1-(1-(Benzo[d][1,3]dioxol-5-yl)ethyl)piperidin-4-yl)-3-methyl-1,2,4-oxadiazole], for which the IC50 fell in the range of 2e-07 to 1e-06 M.

`CC(c1ccc2c(c1)OCCO2)N1CCN(c2nc(C(N)=O)cs2)CC1` (racemic) [Example 49, 2-(4-(1-(2,3-Dihydrobenzo[b][1,4]dioxin-6-yl)ethyl)piperazin-1-yl)thiazole-4-carboxamide]: the IC50 fell in the range of 2e-07 to 1e-06 M.

On to `CC(=O)Nc1cnc(N2CCN(C(C)c3cccc4cccnc34)CC2)nc1` (racemic) [Example 127, N-(2-(4-(1-(quinolin-8-yl)ethyl)piperazin-1-yl)pyrimidin-5-yl)acetamide], for which the IC50 was 1e-06 to 1e-05 M.

As for “N-(2-(4-(1-(3,4-Dichlorophenyl)ethyl)piperazin-1-yl)thiazol-5-yl)acetamide [Example 87]”, the IC50 lay in the range of 1e-06 to 1e-05 M.

Regarding `CC(c1ccc2c(c1)OCO2)N1CCN(c2ncc(CO)cn2)CC1` (racemic) [Example 52, (2-(4-(1-(benzo[d][1,3]dioxol-5-yl)ethyl)piperazin-1-yl)pyrimidin-5-yl)methanol], the IC50 was < 5e-08 M.

Consider `CC(c1ccc2c(c1)OCO2)N1CCN(c2nc(C(C)(C)C)cs2)CC1` (racemic) [Example 16, 2-(4-(1-(benzo[d][1,3]dioxol-5-yl)ethyl)piperazin-1-yl)-4-(tert-butyl)thiazole], for which the IC50 was in the range of 1e-06 to 1e-05 M.

For `CC(=O)Nc1nccc(N2CCN(C(C)c3ccc4c(c3)OCO4)CC2)n1` (racemic) [Example 54, N-(4-(4-(1-(Benzo[d][1,3]dioxol-5-yl)ethyl)piperazin-1-yl)pyrimidin-2-yl)acetamide], the IC50 lay in the range of 5e-08 to 2e-07 M.

On to `CC(=O)Nc1cnc(N2CCN(C(C)c3ccc4ncsc4c3)CC2)nc1` (racemic) [Example 174, N-(2-(4-(1-(benzo[d]thiazol-6-yl)ethyl)piperazin-1-yl)pyrimidin-5-yl)acetamide], for which the IC50 lay in the range of 1e-06 to 1e-05 M.

Regarding `Cc1ccnc(N2CCN(C(C)c3ccc4c(c3)OCO4)CC2)n1` (racemic) [Example 9, 2-(4-(1-(Benzo[d][1,3]dioxol-5-yl)ethyl)piperazin-1-yl)-4-methylpyrimidine], the IC50 was in the range of 2e-07 to 1e-06 M.

For `C[C@@H](c1ccc2c(c1)OCO2)N1CCN(c2ncc(C3(O)CCOC3)cn2)CC1` (stereo partly drawn) [Example 189, 3-(2-(4-((S)-1-(benzo[d][1,3]dioxol-5-yl)ethyl)piperazin-1-yl)pyrimidin-5-yl)tetrahydrofuran-3-ol], the IC50 is < 5e-08 M.

Regarding `CC(c1ccc2c(c1)OCO2)N1CCN(c2ncc(Cl)cn2)CC1` (racemic) [Example 38], the IC50 lay within 5e-08 to 2e-07 M.

For `C[C@@H](c1ccc2c(c1)OCO2)N1CCN(c2nnc(NC(=O)CCO)s2)CC1` [Example 171], the IC50 was < 5e-08 M.

As to `CC(c1ccc2c(c1)OCO2)N1CCN(c2nnc(NC(=O)c3ccc(Cl)cc3)s2)CC1` (racemic) [Example 110, N-(5-(4-(1-(benzo[d][1,3]dioxol-5-yl)ethyl)piperazin-1-yl)-1,3,4-thiadiazol-2-yl)-4-chlorobenzamide], the IC50 lay in the range of 5e-08 to 2e-07 M.

Take `Cc1ccc(N2CCN(C(C)c3ccc4c(c3)OCO4)CC2)nc1` (racemic) [Example 14, 1-(1-(Benzo[d][1,3]dioxol-5-yl)ethyl)-4-(5-methylpyridin-2-yl)piperazine]: the IC50 fell in the range of 2e-07 to 1e-06 M.

The assay is the same for the next values; noted with them: measured according to Example B01.
As for `C[C@@H](c1ccc2c(c1)OCO2)N1CCN(c2ncc(C3(O)CCCCC3)cn2)CC1` [Example 180, (S)-1-(2-(4-(1-(benzo[d][1,3]dioxol-5-yl)ethyl)piperazin-1-yl)pyrimidin-5-yl)cyclohexan-1-ol], the “OGA inhibitor activity (in words)” value is given as “very potent OGA inhibitors”.

`CC(=O)Nc1cnc(N2CCN(C(C)c3ccc4c(c3)OCC4)CC2)nc1` (racemic) [Example 129, N-(2-(4-(1-(2,3-dihydrobenzofuran-6-yl)ethyl)piperazin-1-yl)pyrimidin-5-yl)acetamide]: the “OGA inhibitor activity (in words)” value is recorded as “very potent OGA inhibitors”.

For the compound `CC(=O)Nc1nnc(N2CCN(C(C)c3ccc4c(c3)OCC4)CC2)s1` (racemic) [Example 128, N-(5-(4-(1-(2,3-dihydrobenzofuran-6-yl)ethyl)piperazin-1-yl)-1,3,4-thiadiazol-2-yl)acetamide], the “OGA inhibitor activity (in words)” value is “very potent OGA inhibitors”.

In the case of `CC(c1ccc2c(c1)OCO2)N1CCN(c2ncc(CO)cn2)CC1` (racemic) [Example 52, (2-(4-(1-(benzo[d][1,3]dioxol-5-yl)ethyl)piperazin-1-yl)pyrimidin-5-yl)methanol], the “OGA inhibitor activity (in words)” value was “very potent OGA inhibitors”.

Turning to `CC(c1ccc2c(c1)OCCO2)N1CCN(c2ncccn2)CC1` (single isomer, unassigned) [Example 34], the “OGA inhibitor activity (in words)” value is “very potent OGA inhibitors”.

As usually defined, the IC50 is the concentration at which inhibition is half-maximal.
